Laboratory results as given in patent US20140017701A1, “CHIMERIC PDK1 KINASES” (priority 2011, published 2014).

What was measured:
[1] = system: PKCζ-dependent NFκB activation in U937 cells; experiment: PKCζ-dependent NFκB signaling in U937 cells (luciferase reporter, TNFα stimulation); assay type: cell-based; settings: 3 h pre-incubation, TNFα 50 ng/ml 90 min, read-out: IC50, inhibition of PKCζ-dependent NFκB activation
Procedure: In U937 lymphoma cells, tumor necrosis factor alpha (TNFα) dependent activation of NFκB is dependent on PKCζ activity (Folgueira, L. et al. J Virol 70, 223-31 (1996); Muller, G. et al. Embo J 14, 1961-9 (1995)). U937cells were transiently transfected with a plasmid encoding for luciferase under the control of NFκB response elements (pGL4.32 [luc2P/NF-κB-RE/Hygro], Promega). After serum starvation overnight, the cells were incubated in 96-well plates with the compounds or DMSO (0.25%) for 3 h and stimulated with TNFα (50 ng/ml, PeproTech) for 90 min. Bright-Glo Luciferase Assay reagent (Promega) was added and the luciferase activity measured using the multilabel reader station EnVision (Perkin Elmer).
U937 lymphoma cells were transiently transfected with a plasmid coding for luciferase under the control of the NFκB promoter. Upon stimulation of the cells with TNFα, an increase in luciferase activity is detected. In U937 cells, the NFκB signaling pathway is dependent on PKCζ activity (Muller, G. et al. Embo J 14, 1961-9 (1995)).

PDK1/PKCζ chimera = target: T1, PDK1/PKCζ chimera (Homo sapiens, UniProt O15530, F157L/I118V/I119H/L113V/Q292A/R131K/T128Q/T148C/V124I/Y288G); experiment: Activity assay with PDK1/PKCζ chimera; assay type: biochemical; settings: PDK1 50-359/PKCζ chimera, PDK1[P-P-ζ]
T1 construct: His (N); made in house; host or cells: insect cells
T1 sequence (O15530 50-359 L113V/I118V/I119H/V124I/T128Q/R131K/T148C/F157L/Y288G/Q292A): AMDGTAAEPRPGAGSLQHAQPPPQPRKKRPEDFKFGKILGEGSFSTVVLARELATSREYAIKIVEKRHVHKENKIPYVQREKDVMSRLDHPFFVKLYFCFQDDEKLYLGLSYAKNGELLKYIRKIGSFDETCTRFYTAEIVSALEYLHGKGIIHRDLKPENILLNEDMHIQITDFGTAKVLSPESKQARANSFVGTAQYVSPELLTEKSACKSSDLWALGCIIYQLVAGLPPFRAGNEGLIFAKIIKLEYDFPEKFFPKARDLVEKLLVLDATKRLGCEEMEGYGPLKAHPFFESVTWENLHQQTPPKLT
Procedure: The protein kinase activity assays were performed essentially as previously described (Engel, M. et al. Embo J 25, 5469-80 (2006)). The assays were done in a 96-well format and 4 μl aliquots spotted on P81 phospho-cellulose papers (Whatman) using epMotion 5070 (Eppendorf), washed in 0.01% phosphoric acid, dried, and then exposed and analyzed using PhosphoImager technology (FLA-9000 Starion, Fujifilm). Atypical PKC (aPKC) activity assays were performed in a total volume of 20 μl containing 50 mM Tris-HCl pH 7.5, 0.05 mg/ml BSA, 0.1% (v/v) 2-mercaptoethanol, 10 mM MgCl2, 100 μM [γ^32P]ATP (5-50 cpm/pmol), 0.003% Brij, 30-50 ng of aPKC, and MBP (10 μM) or PSRtide (100 μM) as the substrate. After 15 min pre-incubation, the kinase reaction was started by addition of 6 μl of an ATP-Mg mix. When required, lipid activator (LA) phosphatidylserine (100 ng) or PKC lipid activator mix (1×) was included in the pre-incubation. Low basal activity and consistent activation of 1-592 PKCζ and 498 PKCζ by LA was obtained when the pre-incubation time was started by addition of the whole mix on the enzyme.
The substrates were T308tide (200 μM) for PDK1, Kemptide (100 μM) for PKA, and Crosstide (100 μM) for SGK, PKB, S6K, and PRK2. The activity assays for PKCα, β, θ, and δ were performed in the presence of PKC lipid activator mix (1×) using 3 μM of histone H1 as substrate.

[2] = target: T2, GST-PDK1 1-556 with PIF-pocket mutated to mimic PKCz (Homo sapiens, UniProt O15530, F157L/I118V/I119H/L113V/R131K/T128Q/T148C/V124I); experiment: Activity assay with full length GST-PDK1 1-556 mutated to mimic the PIF-pocket of PKCz; assay type: biochemical; settings: without the dm mutation
T2 construct: a GST-PDK1 1-556 (full length, without the dm mutation); made in house; host or cells: HEK293 (general method for GST-fused kinases)
T2 sequence (O15530 1-556 L113V/I118V/I119H/V124I/T128Q/R131K/T148C/F157L): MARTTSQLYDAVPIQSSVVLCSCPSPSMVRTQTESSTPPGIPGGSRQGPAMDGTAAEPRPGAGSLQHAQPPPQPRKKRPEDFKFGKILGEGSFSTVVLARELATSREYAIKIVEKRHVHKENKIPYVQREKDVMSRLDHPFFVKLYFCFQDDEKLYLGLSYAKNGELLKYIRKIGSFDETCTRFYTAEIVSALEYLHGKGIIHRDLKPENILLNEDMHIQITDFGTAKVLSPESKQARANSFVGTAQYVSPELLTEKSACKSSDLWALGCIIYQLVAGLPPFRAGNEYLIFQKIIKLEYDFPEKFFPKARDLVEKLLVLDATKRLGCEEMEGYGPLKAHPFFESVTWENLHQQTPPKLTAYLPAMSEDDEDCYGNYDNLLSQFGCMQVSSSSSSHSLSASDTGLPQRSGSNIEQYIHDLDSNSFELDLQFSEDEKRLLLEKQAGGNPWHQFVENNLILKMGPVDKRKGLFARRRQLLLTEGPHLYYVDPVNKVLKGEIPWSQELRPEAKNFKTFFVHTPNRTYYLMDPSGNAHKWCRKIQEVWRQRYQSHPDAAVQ
From the text: Thus, non-mutated PDK1 50-359 protein and other constructs of PDK1 lacking the (dm) mutations, when mutated at the PIF-pocket to mimic the PIF-pocket of other AGC kinases, are also expected to transduce the conformational change similarly to the dmPDK1 50-359. […] The preferred construct for mutagenesis to create the chimeric proteins is dmPDK1 50-359. Also preferred is the use of PDK1 50-359 which can be produced in high quality for crystallization studies or other suitable constructs, for example PDK1 76-359 that corresponds to a sequence of aminoacids observed in the crystals of PDK1 in different crystal packings.

Compound	IC50 [1] [µM]	Effect on PDK1/PKCζ chimera activity (PDK1/PKCζ chimera)	Effect on activity of GST-PDK1 1-556 mutated to mimic PIF-pocket of PKCz [2]
Cl.O=C(O)CC(Cc1nc2c(Cl)cc(Cl)cc2[nH]1)c1ccc(Cl)cc1 (stereo not shown) [PS171]	50		
Cl.O=C(O)CC(Cc1nc2cc(-c3ccccc3)ccc2[nH]1)c1ccc(Cl)cc1 (stereo not shown) [PS168]	50	inhibits	inhibited
